According to patent US4167511A, “Methylsilacyclopentenyl-containing silylating agents and method therefor” (Dow Corning Corporation, priority 1978, dated 1979):

Assay: Silylating power: half-life of silylating agent in excess isopropyl alcohol at 35° C. (1H n.m.r.)
Assay type: physicochemical
Conditions: for Half-life in Excess Isopropanol: 0.1 ml. silylating agent in 0.5 ml. anhydrous isopropyl alcohol, 35° C., n.m.r.
Excerpt: The compositions of this invention have unexpected silylating power. By the terms silylating and silylation it is meant a process wherein an active-hydrogen, i.e. one bond to an oxygen, sulfur or nitrogen atom, in a compound is replaced with a hydrocarbon-substituted silyl radical. Silylation, according to the process of this invention proceeds rapidly and, in many cases, essentially quantitatively thereby replacing an active-hydrogen with a methylsilacyclopentenyl radical. By silylating power it is meant the ability of a silylating agent to silylate isopropyl alcohol as indicated by the half-life of the silylating agent in excess isopropyl alcohol at 35° C., using standard chemical kinetic measuring methods hereinafter described. Silylating power is inversely related to said half-life.
Standard nuclear magnetic resonance (n.m.r.) tubes, 5 mm. O.D.×205 mm. long, were first charged with 0.1 ml. of the silylating agents listed in the Table and then with 0.5 ml. of anhydrous isopropyl alcohol using a dry box to insure anhydrous conditions. Immediately after the addition of isopropyl alcohol the tubes were stoppered, inverted at least once to mix the reactants, removed from the dry box, and, within 30 seconds after the addition of isopropyl alcohol, were placed in a varian A-60 ^1 H n.m.r. spectometer at 35° C. The n.m.r. spectrometer was preset to record the signal of the hydrogen atoms in the silicon-bonded methyl group. In repeat experiments the n.m.r. spectrometer was preset to record the signal of the hydrogen atoms in the methyl groups of N-methylacetamideor the nitrogen-bound hydrogen atom in epsilon-caprolactam. Where possible the reaction was followed by taking several readings of the appropriate n.m.r. signal intensity over a period of time.
The compositions of this invention have a half-life which is too short to measure by this technique since they are completely reacted before the reaction mixture is placed in the n.m.r. spectrometer.

Molecule | Half-life in Excess Isopropanol [min] | silylating power (compared in words with triorganosilyl analogs, inversely related to half-life in excess isopropyl alcohol at 35° C.)
CC(=O)N(C)[Si](C)(C)c1ccccc1 | 55 | –
methylsilacyclopentenyl-N-methylacetamide | – | greater than that of trimethylsilyl-N-methylacetamide, dimethylvinylsilyl-N-methylacetamide, dimethylphenylsilyl-N-methylacetamide and dimethyl-3,3,3-trifluoropropylsllyl-N-methylacetamide
CC(=O)N(C)[Si](C)(C)CCC(F)(F)F | 40 | –
C=C[Si](C)(C)N(C)C(C)=O | 240 | –
